Results from paper PMC10222323, “Novel Biotinylated Cu(II)-Phenanthroline Complexes: 2D and 3D Cytotoxic Activity and Mechanistic Insight” (Molecules, 2023).

Assays:
noncancerous CHO cells = test: Cytotoxicity against noncancerous CHO cells; assay type: cell-based; conditions: for S.I. (selectivity index): average IC50 toward normal cells divided by the average IC50 for the malignant cells; for IC50: noncancerous cells
Excerpt: In order to preliminarily assess the possible toxic effect on noncancerous cells, we also evaluated the cytotoxic potential of the newly developed Cu(II) complexes against noncancerous CHO cells (Table 3). For all tested complexes, calculated IC50 values were higher than those obtained (on average) against tumour cells, thus indicating for this class of metal complexes a slightly preferential cytotoxicity against cancer cells, as attested by the calculated selectivity index values (SI = the quotient of the average IC50 toward normal cells divided by the average IC50 for the malignant cells).
(§1) The growth inhibitory effect toward the tumour cell lines was evaluated by the MTT test as previously described.

MDA-MB-231 cells = conditions: 24 h, IC50 concentrations
Procedure: Transmission electron microscopy (TEM) studies were also performed to assess the eventual modification of cellular/subcellular morphological features induced by the tested complexes. Figure 5 reports the TEM images of the breast carcinoma cells MDA-MB-231 treated for 24 h with IC50 concentrations of cisplatin or compounds 2 and 4.
About 10^6 MDA-MB-231 cells were seeded in 24-well plates and, following overnight incubation, were treated with the tested compounds for 24 h. Then, cells were processed as previously described. Pictures were captured with a Hitachi H-600 electron microscope (Hitachi, Tokyo, Japan) operating at 75 kV. All photos were analyzed by using Corel Draw 11.
Figure 5 TEM analysis of MDA-MB-231 human breast cancer cells: (a,b) control cells; (c–e) cells treated for 24 h with IC50 concentrations of 2; (f–h) cells treated for 24 h with IC50 concentrations of 4.

[1] = tested on: human pancreatic PSN-1 cancer-cell spheroids; test: 3D spheroid cytotoxicity, APH assay, 72 h; assay type: cell-based; conditions: for IC50: 3D spheroids, 72 h, APH test; for times more effective than cisplatin in 3D spheroids: PSN-1 3D spheroids, relative to cisplatin
Procedure: The cancer spheroids were treated with tested complexes for 72 h, and the cell viability was estimated by means of a modified acid phosphatase (APH) assay.
Spheroid cultures were performed by seeding 2.5 × 10^3 PSN-1 cancer cells/well in spheroid-suitable tissue culture untreated 96-well plates (Greiner Bio-one, Kremsmünster, Austria) in RPMI-1640 cell culture medium without phenol red (Sigma Chemical Co., St. Louis, MO, USA) containing 10% fetal calf serum and supplemented with 20% methyl cellulose stock solution.
An established APH-modified assay was used to detect the cytotoxicity profile in 3D spheroids, as previously described. IC50 values were calculated using a 4-PL model.

[2] = tested on: C13* ovarian cancer cells (cisplatin-resistant); test: MTT cytotoxicity test, 72 h, cisplatin-resistant C13*; assay type: cell-based, human; conditions: for R.F. (resistance factor): RF = IC50 resistant (C13*)/IC50 parental cells (2008); for IC50: cisplatin-resistant cells, 72 h, MTT test
Procedure: Table 2 reported the IC50 values of the complexes against two types of ovarian cancer cells, one sensitive (2008) and one resistant to cisplatin (C13*). […] The resistance factor (R.F., the ratio among IC50 values obtained in resistant C13*cells and those calculated in the sensitive 2008 ones) calculated for all tested complexes resulted to be ≤2 (R.F. for cisplatin 11.1), strongly confirming the ability of the complexes to bypass cisplatin resistance.
(§2) Tested compounds were dissolved in DMSO and added to the cell-growth medium to a final solvent concentration of 0.5%, which is well reported to not have cytotoxic effects on cell viability. Cisplatin (Sigma Chemical Co., St. Louis, MO, USA) was dissolved in a physiologic solution (0.9% sodium chloride).
(§3) Human colon (HCT-15), pancreatic (PSN-1), and breast (MDA-MB-231) carcinoma-cell lines were obtained from the American Type Culture Collection (ATCC, Rockville, MD). Human cervical carcinoma (A431) cells were kindly provided by Prof. F. Zunino (Division of Experimental Oncology B, Istituto Nazionale dei Tumori, Milan). Human ovarian carcinoma (2008) cells and their cisplatin-resistant counterpart (C13*) were kindly provided by Prof. G. Marverti (Dipartimento di Scienze Biomediche, Università di Modena University, Italy). Cell lines were cultured in RPMI-1640 or DMEM medium (Euroclone) added with 10% fetal calf serum (Euroclone, Milan, Italy), antibiotics (50 units per mL penicillin, and 50 μg mL^−1 streptomycin), and 2 mM L-glutamine.
as §1

[3] = tested on: HCT-15 (colorectal with low sensitivity for cisplatin) cancer cells; test: MTT cytotoxicity test, 72 h, HCT-15; assay type: cell-based, human; conditions: mean ± S.D.
Procedure: (§4) The in vitro anticancer potential of the newly developed complexes and of the ligands has been tested on six different cancer cell lines including PSN-1 (pancreatic), HCT-15 (colorectal with low sensitivity for cisplatin), 2008 (ovarian), A431 (cervical), MDA-MB-231 (breast), and U1285 (lung) cancer cells. For comparison purposes, cisplatin efficacy was assessed under the same experimental conditions.
as §2, §3, §1

[4] = tested on: A431 (cervical) cancer cells; test: MTT cytotoxicity test, 72 h, A431; assay type: cell-based, human; conditions: mean ± S.D.
Procedure: as §4, §2, §3, §1

DNA = test: Ethidium bromide displacement assay; assay type: binding; conditions: EtBr displacement
Procedure: A number of research studies were performed on the elucidation of the mechanism of action of copper complexes in the past three decades. Despite several different molecular targets having been proposed for copper(II) complexes, DNA still represents one of the most substantiated when considering diamine ligands. On this basis, we thought it of interest to evaluate the ability of tested complexes to interact with DNA, both at molecular and cellular levels. An ethidium bromide (EB) displacement assay was used to understand if the complexes interact with the DNA at a molecular level. […] These values are very much in line with what was previously seen by us and also very close to the reported literature values of 2.60 × 10^7 M(bp^−1) and 3.04 × 10^7 M(bp^−1) for the bis complexes of [Cu(phen)2]^2+ and [Cu(DPQ)2]^2+ reported by Molphy et al.. […] It is largely possible that the presence of the 1,10-phenanthroline scaffold on compounds 3 and 4 is contributing to the increased displacement of the EtBr (probably by intercalation) and leading to a more noticeable decrease in the fluorescence.
EtBr displacement assays were performed in 10 mM phosphate buffer solution (pH 7.4) as described by Boger et al. The binding values were calculated using the % relative decrease of fluorescence at 50% and the equation below. (1) EEBEtBr/compound50%FI

Structure (SMILES)	S.I. (selectivity index) (noncancerous CHO cells)	IC50 (noncancerous CHO cells) [µM]	cell morphology by TEM (MDA-MB-231 cells)	IC50 [1] [µM]	times more effective than cisplatin in 3D spheroids [1]	R.F. (resistance factor) [2]	IC50 [2] [µM]	IC50 [3] [µM]	IC50 [4] [µM]	fluorescence quenching (in words) (DNA)	relative fluorescence decrease (DNA)	binding constant (DNA; 10 mM phosphate buffer pH 7.4, from 50% fluorescence decrease)
O=C(CCCC[C@@H]1SC[C@@H]2NC(=O)N[C@@H]21)NN=C1C(=O)c2ccc[n+]3c2-c2c1ccc[n+]2[Cu-2]31[n+]2cccc3ccc4ccc[n+]1c4c32.O=[N+]([O-])[O-].O=[N+]([O-])[O-] [Complex 4, [Cu(phen)(phendione-biotin)](NO3)2]	2.3	1.8 ± 0.7	substantial enhancement of the mitochondrial dimensions (swelling) and a partial disruption of the cristae structures	6.9 ± 1.3	eight	1.9	1.1 ± 0.3	0.4 ± 0.02	0.3 ± 0.03	highest quenching values	greater than 50%	1.28 × 10^7 M(bp^−1)
O=C(CCCC[C@@H]1SC[C@@H]2NC(=O)N[C@@H]21)NN=C1C(=O)c2ccc[n+]3c2-c2c1ccc[n+]2[Cu-2]3([Cl])[Cl] [Complex 2, [Cu(phendione-biotin)Cl2]]	3.7	5.2 ± 0.3	substantial enhancement of the mitochondrial dimensions (swelling) and a partial disruption of the cristae structures	1.3 ± 0.5	about forty	1.0	1.1 ± 0.4	0.4 ± 0.1	1.2 ± 0.5	very small quenching		
